Data reported in patent US6635665B2, “Remedies or preventives for pulmonary insufficiency containing diaminotrifluoromethylpyridine derivatives” (Ishihara Sangyo Kaisha, Ltd., priority 2000, dated 2003).

Tested on: LPS induced rat ARDS model
Assay: Therapeutic effect on lipopolysaccharide (LPS) induced rat ARDS model
Assay type: in vivo
From the text: The therapeutic effect of N-(2-ethylsulfonylamino-5-trifluoromethyl-3-pyridyl)cyclohexanecarboxamide sodium salt hydrate (hereinafter referred to as compound 1) on LPS induced rat ARDS model was examined.
The compound 1 was used as a drug formulation. The formulation composition (content per one vial) was as follows.
To Crj: CD(SD)IGS male rats (7 weeks old) (Charles River Japan Inc.), LPS (derived from Salmonella enteritidis; L6011, Lot. 27H4127, manufactured by Sigma) diluted with a phosphate buffer solution (PBS) was administered by spraying it on the trachea in a dose of 8 mg/kg (0.5 ml/rat) by means of an atomizer (endotracheal liquid atomizing apparatus 1A-1B, manufactured by Penn Century) to induce ARDS. For normal group rats, PBS was similarly sprayed.
A drug formulation of the compound 1 diluted with 5% glucose was subcutaneously administered continuously in a dose of 0.3 mg/kg/hr as calculated as anhydride of the compound 1 by means of an osmotic pump from immediately after the induction to the time of autopsy (24 hours after). To non-treated group rats, 5% glucose used as the solvent was administered similarly.
24 Hours after the administration of LPS, measurement of the body weight and the lung wet weight, biochemical examination of blood and pathological and histopathological examinations were carried out with respect to every surviving rats.
No death was confirmed 24 hours after the LPS administration, and thus various examinations were carried out with respect to every rat. Here, the pathological score was obtained by evaluating each rat in five stages of −(no significant lesion), ±(slight), +(mild), ++(moderate) and +++(marked), and allotting 0, 0.5, 1, 2 and 3 points, respectively, to obtain the average of each group.

[1] = Crj:CD(SD)IGS male rats, LPS 8 mg/kg on the trachea, 0.3 mg/kg/hr x 24 hr subcutaneous by osmotic pump, 24 hours after LPS, score 0-3, non-treated group 2.7, P < 0.01 vs. non-treated group
[2] = Crj:CD(SD)IGS male rats, LPS 8 mg/kg on the trachea, 0.3 mg/kg/hr x 24 hr subcutaneous by osmotic pump, 24 hours after LPS, score 0-3, non-treated group 2.8, P < 0.01 vs. non-treated group

CCS(=O)(=O)Nc1ncc(C(F)(F)F)cc1NC(=O)C1CCCCC1.O.[Na] [Compound 1, N-(2-ethylsulfonylamino-5-trifluoromethyl-3-pyridyl)cyclohexanecarboxamide sodium salt hydrate]
Histopathological findings of alveoli: Collapse of alveolar wall (average of score in each group), Mean [1]: 1.2 | Histopathological findings of alveoli: Hemorrhage in alveoli (average of score in each group), Mean [1]: 1.5 | Histopathological findings of alveoli: Alveolar edema (average of score in each group), Mean [2]: 1.4 | Histopathological findings of alveoli: Fibrin deposit in alveoli (average of score in each group), Mean [2]: 1.5 | Autopsy findings of lung: Edema (average of score in each group), Mean (Crj:CD(SD)IGS male rats, LPS 8 mg/kg on the trachea, 0.3 mg/kg/hr x 24 hr subcutaneous by osmotic pump, autopsy 24 hours after LPS, score 0, 0.5, 1, 2, 3 for -, ±, +, ++, +++, non-treated group 0.4): 0.1 | Autopsy findings of lung: Hemorrhage (average of score in each group), Mean (Crj:CD(SD)IGS male rats, LPS 8 mg/kg on the trachea, 0.3 mg/kg/hr x 24 hr subcutaneous by osmotic pump, autopsy 24 hours after LPS, score 0-3, non-treated group 1.0): 0.5 | Autopsy findings of lung: Congestion (average of score in each group), Mean (Crj:CD(SD)IGS male rats, LPS 8 mg/kg on the trachea, 0.3 mg/kg/hr x 24 hr subcutaneous by osmotic pump, autopsy 24 hours after LPS, score 0-3, non-treated group 2.8, P < 0.01 vs. non-treated group): 2.2 | Collapse of the alveolar wall, alveolar edema and hemorrhage, and fibrin deposit in the alveoli (LPS induced rat ARDS model, compound 1 administered group (0.3 mg/kg/hr subcutaneous, 24 hours) compared with non-treated group, result in words): reduced | Inhibition effect against ARDS pathological progress (LPS induced rat ARDS model, compound 1 administered group (0.3 mg/kg/hr subcutaneous, 24 hours), result in words): remarkable inhibition effect
